Data published in patent US20260169002A1, “PROFILING NEWLY-SYNTHESIZED GLYCOPROTEINS AS MOLECULAR SIGNATURES OF INJURY IN DONOR ORGANS” (Carnegie Mellon University, priority 2022, published 2026).

Columns and labels:
human lungs = assay: Bioorthogonal azide labeling during EVLP, histological detection in human lung sections; conditions: Ac4GalNAz vs vehicle in perfusate, 6 hour EVLP
Procedure: Immunostaining: Rehydrated rat or human lung sections were incubated with antigen unmasking solution at 95° C. for 20 minutes. After cooling down, the sections were reacted with Alkyne-PEG4-biotin (Click Chemistry Tools, TA105) under copper-catalyzed cycloaddition (CuAAC) conditions (Rostovtsev et al., 2002, Angewandte Chemie., 114:2708-2711), or reacted without copper catalyst as a control. All samples were blocked with 1% bovine serum albumin (BSA) in PBS for 20 minutes and incubated with a primary antibody against Laminin (Abcam, Cambridge, UK; ab11575) at a dilution of 1:500. The slides were then stained with streptavidin conjugated to ALEXA FLUOR®-647 (Invitrogen, S21374) and Donkey-anti-Rabbit IgG conjugated to ALEXA FLUOR®-488 (Invitrogen, A32790) at a dilution of 1:500. All slides were mounted with DAPI-containing Fluoromount solution (SouthernBiotech, Birmingham, AL; 0100-20). Single-field images were taken using confocal microscopy and stitched images were taken by EVOS FL Auto 2 Imaging System (Thermo Fisher Scientific, Waltham, MA). For quantification, three random fields were taken in each lung section. Azide >biotin intensities for each field taken were measured by Fiji software (Schindelin et al., supra). Laminin channels were converted to 8-bit and intensities were measured for Laminin coverage areas. […]

healthy rat lungs = assay: Effect of Ac4GalNAz probe on lung graft quality during EVLP (morphology, physiology); conditions: 100 μM Ac4GalNAz vs vehicle perfusion, monitored every hour, 4-hour EVLP
Procedure: (§1) Ex vivo lung perfusion (EVLP) in rats: EVLP was performed using a commercially available rodent EVLP system (IL-2 Isolated Perfused Rat or Guinea Pig Lung System; Harvard Apparatus, Holliston, MA) as described elsewhere (Noda et al., 2014, Eur J Cardio-Thorac Surg., 45:e54-60; and (Noda et al., 2021, Sci Rep., 11:12265). Acellular Steen solution (XVIVO Perfusion AB, Denver, CO) was used for perfusate and lungs were medicated with methylprednisolone (SOLU-MEDROL®; Pfizer, Inc., New York, NY) and cephalosporin (Cefazolin; WG Critical Care LLC, Paramus, NJ) equally in all experimental groups using EVLP. […] Pulmonary artery pressure, peak airway pressure, and airway flow were monitored continuously, and dynamic lung compliance and pulmonary vascular resistance were also analyzed. […]
Airspace morphology evaluation: Following EVLP, the lungs receiving Ac4GaIN Az or vehicle control administration were fixed in Formalin, embedded in paraffin, and sectioned to a thickness of 5 μm. […] Horizontal and vertical mean linear intercepts of each image were measured by Fiji software (Schindelin et al., 2012, Exp Rev Resp Med., 11:119-128), following a protocol described elsewhere (Crowley et al., 2019, BMC Pulm Med., 19:206) The mean values of horizontal and vertical mean linear intercepts of the three images were calculated as the estimated airspace size average of each lung section.

rat lungs = assay: Bioorthogonal azide labeling of NewS-glycoproteins during EVLP, histological detection; conditions: 100 μM Ac4GalNAz vs 0.1% DMSO in Steen solution, 4-hour EVLP
Procedure: as §1
Immunostaining: Rehydrated rat or human lung sections were incubated with antigen unmasking solution at 95° C. for 20 minutes. […] For quantification, three random fields were taken in each lung section. Azide >biotin intensities for each field taken were measured by Fiji software (Schindelin et al., supra). Laminin channels were converted to 8-bit and intensities were measured for Laminin coverage areas. […]

post-EVLP lungs = assay: LC-MS/MS proteomic analysis of Input and Eluate samples of lungs with or without Ac4GalNAz during EVLP; design: species or system rat; conditions: before affinity enrichment
Procedure: Chemoselective enrichment of azide-tagged proteins: Cellular protein extracts of the lungs were reacted with Alkyne-PEG4-desthiobiotin (Click Chemistry Tools, 1109) under CuAAC conditions. Proteins were precipitated with four volumes of ice-cold acetone at −20° C. overnight to remove unreacted Alkyne-PEG4-desthiobiotin. The protein pellets were air-dried and re-dissolved in 2% SDS in PBS (pH 7.40), and then saved as Input samples. Following quantification by BCA, an aliquot of each Input sample containing 1.7 mg of protein was introduced to 75 μL streptavidin-conjugated resin (Thermo Fisher Scientific; 53117) for desthiobiotinylated protein pull-down. Following a 3-hour binding period, Supernatants were collected and the resins were washed 7 times for 15 minutes each with 2% SDS, 40 mM additional NaCl in PBS (pH 7.40). The pulled-down proteins were eluted with 30 mM biotin in 2% SDS, 40 mM additional NaCl in PBS (pH 7.40) (Eluting buffer) at room temperature for 1 hour. […] Protein concentrations of the Eluate samples were determined by BCA assay, and the eluates were then stored at −80° C. for SDS-PAGE and proteomic analysis. […]
Samples were analyzed using a UPLC-MS/MS system consisting of an Easy-nLC 1200 ultra-high-pressure liquid chromatography system and an Orbitrap Fusion Lumos mass spectrometer (Thermo Fisher Scientific). […]

Structure (SMILES): CC(=O)OC[C@H]1OC(OC(C)=O)[C@H](NC(=O)CN=[N+]=[N-])[C@@H](OC(C)=O)[C@H]1OC(C)=O (some centres unmarked) [Ac4GalNAz, N-azidoacetylgalactosamine-tetraacylated]
- Azide labeling of lung tissue (azide→biotin fluorescence) (human lungs): also was observed
- Lung compliance during EVLP (healthy rat lungs): no significant differences
- Pulmonary vascular resistance during EVLP (healthy rat lungs): no significant differences
- Azide labeling of lung tissue (azide→biotin fluorescence) (rat lungs): robust and specific azide labeling
- Effect on overall lung proteome (Input samples, Pearson correlation, hierarchical clustering) (post-EVLP lungs): did not significantly alter
